Assay results: patent publication US11850237B2, “Compounds and methods for treating influenza” (priority 2009, dated 2023)
Values after ≈ are worked out from the molar mass of the structure shown. Where two headings read alike, the source gives them in different places.

Key:
H1N1 A/PR/8/34 (PR8) = assay: microbe, parasite or virus in culture; format: cell-based, influenza A virus; conditions: for EC50 / EC90: Influenza A virus; for EC90: read-out: Virus Yield EC90; for antiviral activity against PR8, overall rating: PR8 influenza A virus, Table 1
MDCK cells = assay: Toxicity / cell viability by MTT in uninfected MDCK cells; format: cell-based, canine; conditions: MDCK cells, MTT
Method: (§1) Cell culture, treatment and transfection-Madin-Darby canine kidney (MDCK) cells, and human A549 alveolar type II-like epithelial, Jurkat Tlymphoblastoid and U397 monocytic leukemia cells were grown at 37° C. in a 5% CO2 atmosphere in RPMI 1640 (Invitrogen), supplemented with 10% fetal calf serum (FCS), 2 mM glutamine and antibiotics. Test compounds were added immediately after 1-hour adsorption period, and kept in the culture medium for the entire time of the experiment, unless differently specified. […] Cell viability was determined by the 3-(4,5-dimethylthiazol-2-yl)-2,5-diphenyltetrazolium bromide (MTT) to MTT formazan conversion assay (Sigma-Aldrich) as described previously. Microscopical examination of mock-infected or virus-infected cells was performed using a Leica DM-IL microscope and images were captured on a Leica DC 300 camera using Leica Image-Manager500 software.

[1] = tested on: H1N1 A/PR/8/34 (PR8) virus; assay: microbe, parasite or virus in culture; format: cell-based, influenza A virus; conditions: for PR8 Yield: Nitazoxanide 0 μg/ml
[2] = Toxicity / cell viability by MTT in uninfected MDCK cells; format: cell-based, canine; conditions: dog, uninfected MDCK cells; uninfected cells
Method: as §1

[3] = PR8, MDCK cells, read-out: Virus Yield EC50

Structure (SMILES)	EC50 (H1N1 A/PR/8/34 (PR8); [3]) [µg/mL]	EC90 (H1N1 A/PR/8/34 (PR8); PR8, MDCK cells) [µg/mL]	Toxicity LD50 (MTT) (MDCK cells) [µg/mL]	other results
C[S+]([O-])c1csc(NC(=O)c2ccccc2O)n1 (stereo not drawn) [Compound 30]	10 (≈ 35.4 µM)	> 50	>50	
O=C(Nc1ncc([N+](=O)[O-])s1)c1ccccc1[O-].[Na+] [Compound 3, tizoxanide sodium salt]	0.4	2.5	>50	antiviral activity against PR8, overall rating (H1N1 A/PR/8/34 (PR8)): potent and selective
CS(=O)(=O)c1cnc(NC(=O)c2cccc(O)c2)s1 [Compound 66]	> 50	> 50	>50	
CCCCS(=O)(=O)c1cnc(NC(=O)c2ccccc2OC(C)=O)s1 [Compound 59]	5 (≈ 13.1 µM)	30 (≈ 78.4 µM)	>50	
O=C(Nc1nc(S(=O)(=O)C2CCCCC2)cs1)c1ccccc1O [Compound 39]	10 (≈ 27.3 µM)	30 (≈ 81.9 µM)	>50	
CC(=O)N[C@H]1[C@H]([C@H](O)[C@H](O)CO)OC(C(=O)O)=C[C@@H]1N=C(N)N [Zanamivir]				EC50 ([1]; Influenza A virus, zanamivir alone, PR8, MDCK cells, read-out: EC50): 1000 nM; PR8 Yield ([1]; Zanamivir 0.01 μM): 48 HAU/ml; PR8 Yield ([1]; Zanamivir 0.1 μM): 48 HAU/ml; PR8 Yield ([1]; Zanamivir 1 μM): 24 HAU/ml; effect on viral replication ([1]; zanamivir alone at 0.1 μM): had no effect; reduction (inhibition) of virus yield ([1]; zanamivir alone at the highest test concentration of 1): 50%
CC(C)COC(=O)Oc1ccccc1C(=O)Nc1ncc([N+](=O)[O-])s1 [Compound 14]	1 (≈ 2.74 µM)	8 (≈ 21.9 µM)	20	
CC(=O)Oc1ccccc1C(=O)Nc1nc(S(=O)(=O)C(C)C)cs1 [Compound 36]	1 (≈ 2.71 µM)	8 (≈ 21.7 µM)	>50	antiviral activity against PR8, overall rating (H1N1 A/PR/8/34 (PR8)): potent and selective
CC(=O)Oc1cccc(C(=O)Nc2ncc(S(C)(=O)=O)s2)c1 [Compound 65]	> 50	> 50	>50	
CS(=O)(=O)c1csc(NC(=O)c2cccc(O)c2)n1 [Compound 32]	> 50	> 50	>50	
CCC(=O)Oc1ccccc1C(=O)Nc1ncc([N+](=O)[O-])s1 [Compound 16]	1 (≈ 3.11 µM)	8 (≈ 24.9 µM)	20	
CS(=O)(=O)c1cnc(NC(=O)c2ccccc2[O-])s1.[Na+] [Compound 54]	10	> 50	>50	
CS(=O)(=O)c1cnc(NC(=O)c2ccccc2O)s1 [Compound 53]	10 (≈ 33.5 µM)	> 50	>50	
CC(=O)Oc1ccccc1C(=O)Nc1nc(S(C)(=O)=O)cs1 [Compound 27]	0.1 (≈ 0.294 µM)	0.8 (≈ 2.35 µM)	>50	EC50 (H1N1 A/PR/8/34 (PR8); MDCK, 24 h, read-out: EC50, inhibition of virus replication): 0.1 µg/mL (≈ 0.294 µM); potency relative to NTZ and TIZ (H1N1 A/PR/8/34 (PR8); PR8, MDCK cells): 10 times; antiviral activity against PR8, overall rating (H1N1 A/PR/8/34 (PR8)): potent and selective; CC50 [2]: > 50 µg/mL
CCOC(=O)Oc1ccccc1C(=O)Nc1ncc([N+](=O)[O-])s1 [Compound 15]	1 (≈ 2.96 µM)	7 (≈ 20.8 µM)	30	
